Each structure is given as a SMILES string.

Holding throughout (format): cell-based, human
Assay [1] deals with GAL4DBD-ABI/VP16AD-PYL, inducible luciferase reporter in HEK293T cells. As to the kind of experiment: Inducible luciferase reporter assay, ABA-responsive system (orthogonality). To be noted: treated with IAA or ABA or DMSO for 24 hours. The protocol: To ensure that IAA and ABA could be used to independently control two histone modification editing events, the orthogonality between these two systems was tested. HEK293T cells were co-transfected with either GAL4DBD-TIR1*/VP16AD-AID (responsive to IAA) or GAL4DBD-ABI/VP16AD-PYL (responsive to ABA), and an inducible luciferase reporter construct. This was followed by treating cells with either IAA or ABA (or DMSO as a control) for 24 hours. […] To test the reversibility of IAA-induced dimerization, in which it was critical to achieve precise temporal control, HEK293T cells were co-transfected with GAL4DBD-TIR1*, VP16AD-AID, and an inducible luciferase expression construct, and then treated cells with 50 μM IAA for 24 hours. Cells were then washed with fresh media without IAA to remove the inducer (or no washing as a control). They were then harvested for luciferase assays after washing.
(A reporter such as luciferase makes a cellular process visible.)

In assay [2] the test system is GRM2 mRNA in HEK293T cells. In words: qPCR of GRM2 mRNA levels. To be noted: GRM2 sgRNAs; ABA vs DMSO. The protocol:
To determine if the new method can be used to modify H3K27Ac at other gene loci, sgRNAs were designed that target the promoter region of other genes with low expression levels in HEK293T cells, including GRM2, HBA and MYOD1 (Table 1).
Human embryonic kidney cell HEK293T (American Type Culture Collection, Manassas, Va.) was cultured in Dulbecco's modified Eagle's medium (DMEM) (Gibco) with 10% FBS (Atlanta Biologicals), 1× GlutaMax (Gibco, Thermo Fisher Scientific, Inc., Waltham, Mass.), and 1× penicillin/streptomycin (Pen/Strep; Gibco, Thermo Fisher Scientific, Inc., Waltham, Mass.). Cells (100,000/ml) were plated in 24-well or 10-cm cell culture plate the day before transfection. […]
Total RNA was extracted using the EZNA Total RNA Kit I (Omega Bio-tek, Inc., Norcross, Ga.). qPCR reactions were performed on cDNA prepared from 1,000 ng of total cellular RNA using the High-Capacity cDNA Reverse Transcription Kit (Applied Biosystems Co., Thermo Fisher Scientific, Inc., Foster City, Calif.). […] Data were analyzed using the SDS software, version 2.4 (Applied Biosystems Co., Thermo Fisher Scientific, Inc., Foster City, Calif.), by the ΔΔCt method: the Ct values of target gene were normalized to Ct values of GAPDH, the folds of target gene expression changes were normalized to experimental controls. Analyzed data are reported as the mean±s.e.m. for biological replicates. […]

Assay [3] relates to MYOD1 locus in HEK293T cells. As to the kind of experiment: ChIP-qPCR of FLAG-ABI-P300 and H3K27Ac at the MYOD1 locus. The settings on record: MYOD1 sgRNAs; ABA treatment for 48 hours. (In qPCR the cycle at which signal appears reflects the starting amount.)
In assay [4] the test system is six off-target genes (RHOC, IRF2BP2, TFAM, HSD3B7, METTL2A, CEP250) in HEK293T cells. As to the kind of experiment: qPCR of mRNA levels of six off-target genes with IL1RN sgRNAs. To be noted: 100 μM ABA for 24 hours vs DMSO. How it is done:
FIG. 11. Expression of six off-target genes when induced by ABA using sgRNAs designed for IL1RN. dCas9-PYL-HA, FLAG-ABI-P300 and IL1RN sgRNAs were transfected into HEK293T cells for 24 hours. Cells were then treated with 100 μM of ABA for another 24 hours followed by the analysis of mRNA levels of six off-target genes using q-PCR. The fold changes were calculated by comparing ABA treated cells to cells treated with DMSO. Error bars represent ±s.e.m. from biological replicates (n=6).
It is known that sgRNA/Cas9 can bind to unintended loci, which can lead to off-target effects. To examine if aberrant binding interferes with the interpretation of results, all reported sites in the genome that could potentially be targeted by the IL1RN sgRNAs used in the studies were checked. Changes in the mRNA levels of six genes having TSS close to the off-target sites were monitored (Table 3) after cells were co-transfected with IL1RN sgRNAs, dCas9-PYL-HA and FLAG-ABI-P300 plasmids followed by ABA treatment for 24 hours.
Total RNA was extracted using the EZNA Total RNA Kit I (Omega Bio-tek, Inc., Norcross, Ga.). qPCR reactions were performed on cDNA prepared from 1,000 ng of total cellular RNA using the High-Capacity cDNA Reverse Transcription Kit (Applied Biosystems Co., Thermo Fisher Scientific, Inc., Foster City, Calif.). […] Analyzed data are reported as the mean±s.e.m. for biological replicates. […]

For the compound `CC1=CC(=O)CC(C)(C)[C@@]1(O)/C=C/C(C)=C\C(=O)O` [ABA, abscisic acid], the “luciferase expression, ABA-responsive system” value in assay [1] is reported as “Only the proper combination of inducer with corresponding binding proteins could induce luciferase expression”. The “level of GRM2 mRNA” value in assay [2] is “increases correspondingly”. In assay [3], the “enrichment of FLAG-ABI-P300 at the MYOD1 locus” value is recorded as “causes the enrichment” and the “enrichment of H3K27Ac at the MYOD1 locus” value is reported as “causes the enrichment”. Besides, the “mRNA levels of six off-target genes” value in assay [4] is “None of the six genes display increases in mRNA levels”.

(Values after patent publication US20190256827A1, “EPIGENOME EDITING SYSTEMS AND METHODS” (STC.UNM, priority 2017, published 2019).)
